In patent publication US8575306B2, “Target and method for inhibition of bacterial RNA polymerase” (Rutgers, The State University of New Jersey, priority 2002, dated 2013):
Where a SMILES comes first, the peptide text is derived from it.

Legend:
[1] = tested on: Strain DH5α transformed with a pRL663 derivative (substituted RNAP β′ subunit); assay: Minimum bacteriocidal concentration (MBC) assays, MccJ25-resistant rpoC mutants; type: cell-based, Escherichia coli; details: for MBC (minimum bacteriocidal concentration): 2 hr at 37° C.
Description: (RNAP β′ subunit comprises nearly one-half of all residues of RNAP and comprises all residues of the RNAP secondary channel). Mutagenesis using error-prone PCR was performed (Zhou (1991) Nucl. Acids Res. 19, 6052; Zhou et al., (1993) Proc. Natl. Acad. Sci. USA 90, 6081-6085) of five DNA segments spanning the length of a plasmid-borne rpoC gene (Table 1). Overall, 20 mutagenesis reactions were performed, ˜100,000 candidates were analyzed, and 22 independent plasmid-linked MccJ25-resistant mutants were isolated (Table 1). […] Complementation assays indicate that all 22 MccJ25-resistant mutants can complement an rpoC^ts mutant for growth at the non-permissive temperature, confirming that each encodes a β′ derivative functional in transcription—indeed sufficiently functional in transcription to support viability (Table 2, column 4).
A saturation mutagenesis using a set often “doped” oligodeoxyribonucleotide primers, designed to introduce all possible nucleotide substitutions at all positions of all codons for residues that line the RNAP secondary channel was performed (sequences in Table 3; methods essentially as in the following references (Ner et al., (1988) DNA 7, 127-134; Hermes et al., (1989) Gene 84, 143-151; and Niu et al., (1994) J. Mol. Biol. 243, 595-602). In total, 23 mutagenesis reactions were performed, ˜40,000 candidates were analyzed, and 105 independent plasmid-linked MccJ25-resistant mutants were isolated and characterized (Table 4).

RNAP = assay: Cross-resistance with rifampicin; details: unpublished data

CC[C@H](C)[C@H](NC(=O)CNC(=O)[C@@H](NC(=O)[C@H](Cc1ccccc1)NC(=O)[C@H](Cc1ccc(O)cc1)NC(=O)[C@@H]1CCC(=O)NCC(=O)NCC(=O)N[C@@H](C)C(=O)NCC(=O)N[C@@H](Cc2c[nH]cn2)C(=O)N[C@@H](C(C)C)C(=O)N2CCC[C@H]2C(=O)N1)C(C)C)C(=O)NCC(=O)N[C@H](C(=O)N1CCC[C@H]1C(=O)N[C@H](C(=O)N[C@@H](CO)C(=O)N[C@@H](Cc1ccccc1)C(=O)N[C@@H](Cc1ccc(O)cc1)C(=O)NCC(=O)O)[C@@H](C)CC)[C@@H](C)O [MccJ25] (HELM PEPTIDE1{G.G.A.G.H.V.P.E.Y.F.V.G.I.G.T.P.I.S.F.Y.G}$PEPTIDE1,PEPTIDE1,1:R1-8:R3$$$V2.0)
≥ 50 fold: increase in MBC ([1]; 18 of 22 MccJ25-resistant mutants from random mutagenesis) | increase in MBC ([1]; all 22 MccJ25-resistant mutants from random mutagenesis)
1 mg/mi: MBC (minimum bacteriocidal concentration) ([1]; β′ 498 Pro->Gln) | MBC (minimum bacteriocidal concentration) ([1]; β′ 498 Pro->Leu) | MBC (minimum bacteriocidal concentration) ([1]; β′ 684 Asp->Ala) | MBC (minimum bacteriocidal concentration) ([1]; β′ 735 Ala->Δ) | MBC (minimum bacteriocidal concentration) ([1]; β′ 777 His->Tyr) | MBC (minimum bacteriocidal concentration) ([1]; β′ 779 Ala->Thr) | MBC (minimum bacteriocidal concentration) ([1]; β′ 780 Arg->Cys) | MBC (minimum bacteriocidal concentration) ([1]; β′ 782 Gly->Ala) | MBC (minimum bacteriocidal concentration) ([1]; β′ 788 Leu->Met) | MBC (minimum bacteriocidal concentration) ([1]; β′ 789 Lys->Asn) | MBC (minimum bacteriocidal concentration) ([1]; β′ 789 Lys->Gln) | MBC (minimum bacteriocidal concentration) ([1]; β′ 790 Thr->Ala) | MBC (minimum bacteriocidal concentration) ([1]; β′ 790 Thr->Ile) | MBC (minimum bacteriocidal concentration) ([1]; β′ 927 Gly->Cys) | MBC (minimum bacteriocidal concentration) ([1]; β′ 927 Gly->Ser) | MBC (minimum bacteriocidal concentration) ([1]; β′ 930 Leu->Met) | MBC (minimum bacteriocidal concentration) ([1]; β′ 931 Thr->Ala) | MBC (minimum bacteriocidal concentration) ([1]; β′ 931 Thr->Ile) | MBC (minimum bacteriocidal concentration) ([1]; β′ 932 Met->Ile) | MBC (minimum bacteriocidal concentration) ([1]; β′ 933 Arg->Cys) | MBC (minimum bacteriocidal concentration) ([1]; β′ 1136 Gly->Cys) | MBC (minimum bacteriocidal concentration) ([1]; β′ 1137 Gly->Arg)
0.5 mg/mi: MBC (minimum bacteriocidal concentration) ([1]; β′ 428 Thr->Asn) | MBC (minimum bacteriocidal concentration) ([1]; β′ 428 Thr->Ile) | MBC (minimum bacteriocidal concentration) ([1]; β′ 429 Leu->Gln) | MBC (minimum bacteriocidal concentration) ([1]; β′ 430 His->Tyr) | MBC (minimum bacteriocidal concentration) ([1]; β′ 503 Ser->Pro) | MBC (minimum bacteriocidal concentration) ([1]; β′ 503 Ser->Tyr) | MBC (minimum bacteriocidal concentration) ([1]; β′ 504 Gln->Arg) | MBC (minimum bacteriocidal concentration) ([1]; β′ 504 Gln->Glu) | MBC (minimum bacteriocidal concentration) ([1]; β′ 680 Asn->Lys) | MBC (minimum bacteriocidal concentration) ([1]; β′ 684 Asp->Glu) | MBC (minimum bacteriocidal concentration) ([1]; β′ 684 Asp->Tyr) | MBC (minimum bacteriocidal concentration) ([1]; β′ 684 Asp->Vai) | MBC (minimum bacteriocidal concentration) ([1]; β′ 733 Ser->Val) | MBC (minimum bacteriocidal concentration) ([1]; β′ 736 Gln->Pro) | MBC (minimum bacteriocidal concentration) ([1]; β′ 775 Ser->Cys) | MBC (minimum bacteriocidal concentration) ([1]; β′ 776 Thr->Ile) | MBC (minimum bacteriocidal concentration) ([1]; β′ 777 His->Pro) | MBC (minimum bacteriocidal concentration) ([1]; β′ 779 Ala->Gly) | MBC (minimum bacteriocidal concentration) ([1]; β′ 779 Ala->Pro) | MBC (minimum bacteriocidal concentration) ([1]; β′ 784 Ala->Glu) | MBC (minimum bacteriocidal concentration) ([1]; β′ 785 Asp->Gly) | MBC (minimum bacteriocidal concentration) ([1]; β′ 786 Thr->Ala) | MBC (minimum bacteriocidal concentration) ([1]; β′ 786 Thr->Ile) | MBC (minimum bacteriocidal concentration) ([1]; β′ 789 Lys->Arg) | MBC (minimum bacteriocidal concentration) ([1]; β′ 790 Thr->Asn) | MBC (minimum bacteriocidal concentration) ([1]; β′ 790 Thr->Ser) | MBC (minimum bacteriocidal concentration) ([1]; β′ 922 Cys->Tyr) | MBC (minimum bacteriocidal concentration) ([1]; β′ 926 Pro->Ser) | MBC (minimum bacteriocidal concentration) ([1]; β′ 1136 Gly->Ala) | MBC (minimum bacteriocidal concentration) ([1]; β′ 1137 Gly->Aia) | MBC (minimum bacteriocidal concentration) ([1]; β′ 1240 Val->Glu) | MBC (minimum bacteriocidal concentration) ([1]; β′ 1244 Gln->Leu) | MBC (minimum bacteriocidal concentration) ([1]; β′ multiple-substitution mutant 732 Gly->Asp, 735 Gly->Thr) | MBC (minimum bacteriocidal concentration) ([1]; β′ multiple-substitution mutant 777 His->Ser, 778 Gly->Ala)
0.05 mg/mi: MBC (minimum bacteriocidal concentration) ([1]; β′ 508 Leu->Val) | MBC (minimum bacteriocidal concentration) ([1]; β′ 738 Arg->Leu) | MBC (minimum bacteriocidal concentration) ([1]; β′ 744 Arg->His) | MBC (minimum bacteriocidal concentration) ([1]; β′ 744 Arg->Pro)
0.1 mg/mi: MBC (minimum bacteriocidal concentration) ([1]; β′ 732 Gly->Asp) | MBC (minimum bacteriocidal concentration) ([1]; β′ 733 Ser->Phe) | MBC (minimum bacteriocidal concentration) ([1]; β′ 733 Ser->Tyr) | MBC (minimum bacteriocidal concentration) ([1]; β′ 748 Ala->Pro) | MBC (minimum bacteriocidal concentration) ([1]; β′ 783 Leu->Pro) | MBC (minimum bacteriocidal concentration) ([1]; β′ 1241 Tyr->Cys) | MBC (minimum bacteriocidal concentration) ([1]; β′ 1241 Tyr->His) | MBC (minimum bacteriocidal concentration) ([1]; β′ 1241 Tyr->Ser) | MBC (minimum bacteriocidal concentration) ([1]; β′ 1244 Gln->Glu) | MBC (minimum bacteriocidal concentration) ([1]; β′ 1244 Gln->Pro) | MBC (minimum bacteriocidal concentration) ([1]; β′ 1247 Lys->Gln) | MBC (minimum bacteriocidal concentration) ([1]; β′ 1247 Lys->Glu) | MBC (minimum bacteriocidal concentration) ([1]; β′ 1248 lle->Ser) | MBC (minimum bacteriocidal concentration) ([1]; β′ multiple-substitution mutant 493 Pro->Thr, 498 Pro->Thr) | MBC (minimum bacteriocidal concentration) ([1]; β′ multiple-substitution mutant 732 Gly->Asp, 733 Ser->Ala) | MBC (minimum bacteriocidal concentration) ([1]; β′ multiple-substitution mutant 733 Ser->Val, 734 Ala->Gly)
do not exhibit cross-resistance: cross-resistance with rifampicin (RNAP)
